{"source": "ChEMBL document CHEMBL1201862", "about": "“PubChem BioAssay data set” (2004)", "key": {"[1]": {"target": "Voltage-dependent T-type calcium channel subunit alpha-1H (Homo sapiens, UniProt O95180)", "format": "functional"}, "[2]": {"target": "T1, Short transient receptor potential channel 4 (Mus musculus, UniProt Q9QUQ5)", "T1 sequence (Q9QUQ5 whole entry)": "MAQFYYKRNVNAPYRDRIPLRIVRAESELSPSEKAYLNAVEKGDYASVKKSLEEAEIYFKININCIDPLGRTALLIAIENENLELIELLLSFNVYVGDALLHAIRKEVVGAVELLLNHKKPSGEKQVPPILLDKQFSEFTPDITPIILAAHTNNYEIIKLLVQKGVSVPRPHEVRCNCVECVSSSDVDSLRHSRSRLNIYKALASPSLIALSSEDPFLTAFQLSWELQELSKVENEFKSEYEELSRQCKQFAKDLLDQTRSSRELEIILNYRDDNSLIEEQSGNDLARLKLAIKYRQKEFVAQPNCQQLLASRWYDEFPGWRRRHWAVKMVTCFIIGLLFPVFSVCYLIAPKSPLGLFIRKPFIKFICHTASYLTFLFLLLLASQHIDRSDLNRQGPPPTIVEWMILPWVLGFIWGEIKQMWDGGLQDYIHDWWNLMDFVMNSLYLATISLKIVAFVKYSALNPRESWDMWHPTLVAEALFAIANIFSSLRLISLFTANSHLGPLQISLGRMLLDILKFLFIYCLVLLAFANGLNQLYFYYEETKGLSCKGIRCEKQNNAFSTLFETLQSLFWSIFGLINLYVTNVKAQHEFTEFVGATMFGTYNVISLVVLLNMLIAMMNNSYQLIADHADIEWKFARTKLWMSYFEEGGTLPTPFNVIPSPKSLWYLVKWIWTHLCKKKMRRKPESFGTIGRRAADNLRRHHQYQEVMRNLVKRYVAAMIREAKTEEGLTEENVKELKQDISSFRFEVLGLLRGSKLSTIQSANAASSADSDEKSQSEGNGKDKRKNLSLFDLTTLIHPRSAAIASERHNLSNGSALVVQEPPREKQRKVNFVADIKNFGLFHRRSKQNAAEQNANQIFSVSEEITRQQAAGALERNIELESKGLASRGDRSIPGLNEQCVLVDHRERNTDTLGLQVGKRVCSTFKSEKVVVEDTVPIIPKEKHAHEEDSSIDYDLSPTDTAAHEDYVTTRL", "test": "calcium entry via TRPC4 opening agents – cell-based, HEK293 TRPC4/mu-opioid, Fluo-4 calcium, dose response (AID 434937)", "format": "functional"}, "[3]": {"target": "T2, E3 ubiquitin-protein ligase XIAP (Homo sapiens, UniProt P98170)", "T2 sequence (P98170 whole entry)": "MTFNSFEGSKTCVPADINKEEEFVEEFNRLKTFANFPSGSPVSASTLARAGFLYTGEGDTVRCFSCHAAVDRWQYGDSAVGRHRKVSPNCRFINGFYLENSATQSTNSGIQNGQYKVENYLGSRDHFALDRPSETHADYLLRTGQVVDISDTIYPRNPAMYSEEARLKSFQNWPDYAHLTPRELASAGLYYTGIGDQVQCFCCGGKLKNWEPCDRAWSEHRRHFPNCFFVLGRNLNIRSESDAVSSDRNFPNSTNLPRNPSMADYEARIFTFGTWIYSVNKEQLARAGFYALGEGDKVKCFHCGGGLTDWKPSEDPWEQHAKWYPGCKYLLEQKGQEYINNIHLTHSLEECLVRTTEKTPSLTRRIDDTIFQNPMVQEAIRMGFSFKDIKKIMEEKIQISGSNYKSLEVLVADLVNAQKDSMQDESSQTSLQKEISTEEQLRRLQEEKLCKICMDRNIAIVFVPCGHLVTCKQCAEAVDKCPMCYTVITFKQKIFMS", "test": "small molecules displacing peptide from XIAP – biochemical, IAP family, fluorescence polarization (AID 1018)", "format": "functional"}, "[4]": {"target": "T2, E3 ubiquitin-protein ligase XIAP", "test": "Counter Screen using XIAP-Bir3 for Chemical Antagonists of Bir1/2 domains of IAP-family anti-apoptotic proteins. [Related pubchem assays (depositor defined):AID1018, AID1449, AID1514, AID1638, AID1749, AID1750, AID488957, AID488963]"}, "[5]": {"test": "viability inhibitors of stage V gametocytes – luminescence, dose response (AID 1117278);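 further: gametocytes exposed to compound for 24 hours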", "format": "functional, cell-based"}, "[6]": {"test": "viability loss in human Jurkat cells – cell-based, luminescence, cytotoxicity control for P. falciparum gametocyte viability project, dose response (AID 1117277);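 further: potency reflects loss of cellular ATP meaning fewer viable cells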", "format": "functional"}, "[7]": {"target": "Troponin, cardiac muscle (Homo sapiens, UniProt P19429+P45379+P63316)", "test": "Fluorescence-based biochemical high throughput dose response assay for activators of the calcium sensitivity of cardiac Regulated Thin Filaments (RTF). [Related pubchem assays (depositor defined):AID493008, AID493018, AID504382, AID504383]", "format": "protein-complex assay"}, "[8]": {"target": "T3, Estrogen receptor (Homo sapiens, UniProt P03372)", "T3 sequence (P03372 whole entry)": "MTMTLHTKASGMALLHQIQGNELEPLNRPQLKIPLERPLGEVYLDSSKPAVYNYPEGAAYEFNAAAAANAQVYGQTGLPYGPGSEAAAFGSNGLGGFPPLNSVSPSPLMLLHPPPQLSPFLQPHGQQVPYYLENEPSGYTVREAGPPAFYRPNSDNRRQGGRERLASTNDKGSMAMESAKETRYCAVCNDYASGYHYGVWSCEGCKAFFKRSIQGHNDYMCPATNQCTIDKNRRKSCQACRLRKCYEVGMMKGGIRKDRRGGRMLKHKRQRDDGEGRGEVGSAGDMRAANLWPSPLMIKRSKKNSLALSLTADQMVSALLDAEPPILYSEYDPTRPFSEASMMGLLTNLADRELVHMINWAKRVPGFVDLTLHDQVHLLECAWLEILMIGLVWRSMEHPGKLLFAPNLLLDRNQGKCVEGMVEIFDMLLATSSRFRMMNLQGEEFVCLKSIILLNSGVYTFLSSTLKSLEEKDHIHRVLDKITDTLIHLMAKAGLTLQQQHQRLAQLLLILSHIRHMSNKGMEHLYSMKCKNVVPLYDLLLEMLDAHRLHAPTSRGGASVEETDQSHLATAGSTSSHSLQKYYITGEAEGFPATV"}, "[9]": {"target": "T4, Fatty acid synthase (Homo sapiens, UniProt P49327)", "T4 sequence (P49327 whole entry)": "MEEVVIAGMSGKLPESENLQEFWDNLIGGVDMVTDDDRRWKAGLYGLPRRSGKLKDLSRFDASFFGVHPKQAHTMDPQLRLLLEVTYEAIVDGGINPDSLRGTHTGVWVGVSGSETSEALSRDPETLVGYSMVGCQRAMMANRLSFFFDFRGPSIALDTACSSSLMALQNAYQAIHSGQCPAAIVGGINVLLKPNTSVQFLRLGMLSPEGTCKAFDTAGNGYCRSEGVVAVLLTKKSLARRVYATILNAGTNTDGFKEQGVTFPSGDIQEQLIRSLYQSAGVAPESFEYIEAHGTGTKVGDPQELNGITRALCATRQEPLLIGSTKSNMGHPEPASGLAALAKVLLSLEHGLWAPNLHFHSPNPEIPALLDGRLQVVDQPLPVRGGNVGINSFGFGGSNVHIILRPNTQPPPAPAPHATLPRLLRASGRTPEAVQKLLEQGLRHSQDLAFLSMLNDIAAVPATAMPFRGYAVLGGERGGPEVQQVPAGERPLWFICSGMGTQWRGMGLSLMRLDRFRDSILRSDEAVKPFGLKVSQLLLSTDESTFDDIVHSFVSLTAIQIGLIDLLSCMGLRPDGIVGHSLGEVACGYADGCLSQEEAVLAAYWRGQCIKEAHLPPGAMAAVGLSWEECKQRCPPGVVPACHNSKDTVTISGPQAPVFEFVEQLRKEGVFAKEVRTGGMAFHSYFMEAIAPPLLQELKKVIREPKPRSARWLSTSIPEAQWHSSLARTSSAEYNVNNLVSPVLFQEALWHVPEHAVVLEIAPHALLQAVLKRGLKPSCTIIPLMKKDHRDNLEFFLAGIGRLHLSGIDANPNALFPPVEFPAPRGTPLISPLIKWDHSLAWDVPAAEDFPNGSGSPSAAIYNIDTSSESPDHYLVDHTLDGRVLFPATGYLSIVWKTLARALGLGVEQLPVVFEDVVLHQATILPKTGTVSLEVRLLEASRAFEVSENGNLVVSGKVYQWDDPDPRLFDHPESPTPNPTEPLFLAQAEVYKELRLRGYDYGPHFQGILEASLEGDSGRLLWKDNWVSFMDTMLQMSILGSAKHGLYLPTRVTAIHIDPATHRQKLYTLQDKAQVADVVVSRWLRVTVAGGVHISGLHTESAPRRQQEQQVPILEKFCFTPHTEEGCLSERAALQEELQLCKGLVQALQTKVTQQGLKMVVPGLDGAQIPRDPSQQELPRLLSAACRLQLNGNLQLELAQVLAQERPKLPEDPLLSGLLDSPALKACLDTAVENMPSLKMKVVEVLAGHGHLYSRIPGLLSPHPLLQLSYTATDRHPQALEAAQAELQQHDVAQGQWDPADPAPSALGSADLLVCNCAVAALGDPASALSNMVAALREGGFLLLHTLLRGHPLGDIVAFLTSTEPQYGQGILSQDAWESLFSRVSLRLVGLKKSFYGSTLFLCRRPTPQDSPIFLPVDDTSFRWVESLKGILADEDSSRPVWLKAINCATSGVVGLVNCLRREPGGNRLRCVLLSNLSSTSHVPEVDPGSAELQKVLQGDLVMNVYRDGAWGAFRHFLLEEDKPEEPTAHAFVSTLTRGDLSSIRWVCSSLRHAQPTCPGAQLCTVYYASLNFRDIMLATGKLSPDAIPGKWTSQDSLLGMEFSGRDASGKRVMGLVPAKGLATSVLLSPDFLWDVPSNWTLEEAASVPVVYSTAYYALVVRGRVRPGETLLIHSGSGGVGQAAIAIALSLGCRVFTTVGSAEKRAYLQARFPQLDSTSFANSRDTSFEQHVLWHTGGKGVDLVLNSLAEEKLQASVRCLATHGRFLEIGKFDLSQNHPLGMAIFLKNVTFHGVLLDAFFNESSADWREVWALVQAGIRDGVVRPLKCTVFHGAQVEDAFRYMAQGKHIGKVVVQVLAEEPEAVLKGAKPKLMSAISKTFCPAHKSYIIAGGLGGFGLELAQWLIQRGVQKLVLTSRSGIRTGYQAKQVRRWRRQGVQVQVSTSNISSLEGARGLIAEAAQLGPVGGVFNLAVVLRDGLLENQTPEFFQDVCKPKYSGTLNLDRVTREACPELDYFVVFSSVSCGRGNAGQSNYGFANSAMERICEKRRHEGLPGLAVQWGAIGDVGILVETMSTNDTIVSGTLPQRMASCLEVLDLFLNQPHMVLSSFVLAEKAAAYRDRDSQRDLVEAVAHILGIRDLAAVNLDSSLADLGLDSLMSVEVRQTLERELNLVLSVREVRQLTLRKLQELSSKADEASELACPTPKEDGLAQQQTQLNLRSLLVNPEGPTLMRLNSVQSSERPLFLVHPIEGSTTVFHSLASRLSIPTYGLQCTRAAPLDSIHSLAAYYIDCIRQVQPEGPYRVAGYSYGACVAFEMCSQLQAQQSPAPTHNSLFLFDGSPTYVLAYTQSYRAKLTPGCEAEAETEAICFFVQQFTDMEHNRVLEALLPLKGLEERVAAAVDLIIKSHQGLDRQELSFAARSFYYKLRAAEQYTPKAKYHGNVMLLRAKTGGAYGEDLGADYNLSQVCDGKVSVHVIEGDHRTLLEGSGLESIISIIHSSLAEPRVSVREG", "test": "inhibition of human FAS-TE enzyme activity – biochemical, kinetic fluorescence intensity, dose response (AID 624326);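 further: rate of fluorescence rise from hydrolysis of a fluorogenic O-methyl fluorescein ester substrate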", "format": "functional"}, "[10]": {"test": "alpha-synuclein stem-loop luciferase translation blockers – H4 neuroglioma cells, luminescence, confirmation (AID 1988)", "format": "functional, cell-based"}, "[11]": {"test": "Vero E6 cell cytotoxicity, dose response, cytotoxicity control for non-replicating M. tuberculosis project, secondary assay (AID 492998)", "format": "functional, VeroE6", "details": "Vero C1008"}, "[12]": {"test": "THP-1 cell cytotoxicity, dose response, cytotoxicity control for non-replicating M. tuberculosis project (AID 489025)", "format": "functional"}, "[13]": {"target": "T4, Fatty acid synthase", "test": "inhibition of human FAS-TE enzyme activity – biochemical, endpoint fluorescence intensity, uHTS hits, dose response (AID 624327);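 further: fluorescence from hydrolysis of an O-methyl fluorescein acyl ester substrate by the enzyme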", "format": "functional"}, "[14]": {"test": "cells", "format": "functional"}, "[15]": {"test": "HEK-293T cell viability reduction – luminescence, B-cell screen hits, cytotoxicity control for BCR NF-kB inhibitor project, dose response (AID 489021);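 further: cells exposed to compound for about 14 hours before viability readout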", "format": "functional, cell-based"}, "[16]": {"test": "NIH3T3 cell viability loss – ATP luminescence, mouse fibroblasts, counter-screen, dose response (AID 2010);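 further: cells exposed to compound for about 90 hours before reading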", "format": "functional, cell-based"}, "[17]": {"test": "Luminescence Cell-Based Dose Response HTS to Identify Inhibitors of 5'UTR Stem-Loop Driven Prion Protein mRNA Translation in H4 Neuroglioblastoma Cells. [Related pubchem assays: 1827 (Project Summary), 1813 (Primary HTS)]", "format": "functional"}, "[18]": {"test": "HepG2 cell cytotoxicity, dose response, cytotoxicity control for non-replicating M. tuberculosis project (AID 489018)", "format": "functional", "details": "Mycobacterium tuberculosis"}, "[19]": {"test": "luciferase reporter signal suppression in cells – H4 neuroglioma cells, luminescence, dose response (AID 1990)", "format": "functional, cell-based"}, "[20]": {"test": "Trypanosoma cruzi growth suppression in host cells – NIH3T3 host cells, beta-gal luminescence, confirmation (AID 2044);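 further: intracellular parasites grown in NIH/3T3 mouse fibroblasts as host cells; luminescent beta-galactosidase reporter signal from transgenic T. cruzi replicating inside host cells; inhibitors lower the luminescence signal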", "format": "functional, cell-based"}}, "note": "The source made the active and inactive calls."}
{"smiles": "Cc1ccc(-c2noc(CCC(=O)N(C)c3ccccc3C)n2)cc1", "values": [{"measurement": "EC50", "setting": "[1]", "value": "4.56 µM (active)"}]}
{"smiles": "CN(C)C(CNC(=O)c1ccc2[nH]cnc2c1)c1ccccc1", "note": "(centres undefined)", "values": [{"measurement": "EC50", "setting": "[2]", "value": "0.473 µM (active)"}]}
{"smiles": "CN(Cc1ccccc1)C(=O)c1ccc2c(c1)NC(=O)C(N1CCOCC1)S2", "note": "(centres undefined)", "values": [{"measurement": "IC50", "setting": "[3]", "value": "> 100 µM (not active)"}, {"measurement": "IC50", "setting": "[4]", "value": "> 100 µM (inactive)"}]}
{"smiles": "CN(C)c1nc(N(C)C)n(C(=O)c2cccs2)n1", "values": [{"measurement": "IC50", "setting": "[5]", "value": "> 109 µM (inactive)"}, {"measurement": "IC50", "setting": "[6]", "value": "> 83.3 µM (inactive)"}]}
{"smiles": "Cc1ccnc(N/C=C(\\C#N)c2nc(-c3cccc(Br)c3)cs2)c1", "values": [{"measurement": "EC50", "setting": "[7]", "value": "0.761 µM (active)"}]}
{"smiles": "CCN(c1ccccc1)S(=O)(=O)c1ccc2ncc(C(=O)NCCOC)c(O)c2c1", "values": [{"measurement": "IC50", "setting": "[8]", "value": "27.9 µM (active)"}]}
{"smiles": "COC(=O)c1ccc(C(=O)OC)c(NS(C)(=O)=O)c1", "values": [{"measurement": "IC50", "setting": "[3]", "value": "> 100 µM (not active)"}, {"measurement": "IC50", "setting": "[4]", "value": "> 100 µM (inactive)"}]}
{"smiles": "N#Cc1ccccc1OCC(=O)OCC(=O)N1CCN(C(=O)c2ccco2)CC1", "values": [{"measurement": "IC50", "setting": "[5]", "value": "> 109 µM (inactive)"}, {"measurement": "IC50", "setting": "[6]", "value": "> 83.3 µM (inactive)"}]}
{"smiles": "O=C(Nc1ccccc1C(=O)Nc1nnc(C(F)(F)F)s1)c1ccccc1", "values": [{"measurement": "IC50", "setting": "[9]", "value": "23.5 µM (inactive)"}, {"measurement": "EC50", "setting": "[10]", "value": "19.3 µM (active)"}, {"measurement": "CC50", "setting": "[11]", "value": "> 20 µM (active)"}, {"measurement": "CC50", "setting": "[12]", "value": "3.58 µM (active)"}, {"measurement": "IC50", "setting": "[13]", "value": "80 µM (inactive)"}, {"measurement": "IC50", "setting": "[14]", "value": "15.3 µM (active)"}, {"measurement": "IC50", "setting": "[15]", "value": "46.2 µM (inactive)"}, {"measurement": "EC50", "setting": "[16]", "value": "2.53 µM (active)"}, {"measurement": "EC50", "setting": "[17]", "value": "> 120 µM (not active)"}, {"measurement": "CC50", "setting": "[18]", "value": "3.9 µM (active)"}, {"measurement": "EC50", "setting": "[19]", "value": "> 120 µM (not active)"}, {"measurement": "EC50", "setting": "[20]", "value": "0.927 µM (active)"}]}
{"smiles": "Cn1c(Cc2ccccc2)nnc1SCC(=O)c1cccs1", "values": [{"measurement": "IC50", "setting": "[8]", "value": "> 50 µM (not active)"}]}
{"smiles": "CC1Cc2ccccc2N1C(=O)CSc1nnc(NC(=O)Cc2cccs2)s1", "note": "(centres undefined)", "values": [{"measurement": "IC50", "setting": "[8]", "value": "34 µM (not active)"}]}
{"smiles": "Nc1nc(NC(=O)c2ccccc2)nn1-c1ccccc1", "values": [{"measurement": "IC50", "setting": "[5]", "value": "> 109 µM (inactive)"}, {"measurement": "IC50", "setting": "[6]", "value": "> 83.3 µM (inactive)"}]}
{"smiles": "CCc1ccccc1N(C)C(=O)CCc1nc(-c2ccc(C)cc2)no1", "values": [{"measurement": "EC50", "setting": "[1]", "value": "5.38 µM (active)"}]}
